Experimental data from patent publication US20260078122A1, “INDAZOLE COMPOUNDS AS PKMYT1 KINASE INHIBITORS” (Hoffmann-La Roche Inc., priority 2023, published 2026).

Target: T1, recombinant human Myt1 (full length PKMYT1) (Homo sapiens, UniProt Q99640)
T1 sequence (Q99640 1-499): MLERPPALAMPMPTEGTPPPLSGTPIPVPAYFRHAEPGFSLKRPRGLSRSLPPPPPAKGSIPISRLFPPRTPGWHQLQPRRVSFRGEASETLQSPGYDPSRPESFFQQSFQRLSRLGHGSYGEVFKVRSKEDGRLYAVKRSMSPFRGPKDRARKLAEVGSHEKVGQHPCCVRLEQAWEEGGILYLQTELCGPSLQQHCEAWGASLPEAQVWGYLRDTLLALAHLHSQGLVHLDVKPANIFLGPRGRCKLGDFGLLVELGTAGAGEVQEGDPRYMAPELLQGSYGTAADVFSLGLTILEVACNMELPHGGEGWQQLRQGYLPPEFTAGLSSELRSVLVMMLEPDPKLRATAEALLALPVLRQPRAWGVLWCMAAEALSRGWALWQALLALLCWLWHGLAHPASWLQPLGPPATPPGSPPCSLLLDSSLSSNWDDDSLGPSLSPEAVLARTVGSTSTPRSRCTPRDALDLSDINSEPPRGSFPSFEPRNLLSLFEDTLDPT
Assay: ADP-Glo assay (Myt1 kinase activity)

Row | SMILES | IC50 [µM]
1 | Cc1cc2[nH]c(=O)c(N)c(-c3ccc(F)c4[nH]ncc34)c2cc1C1CCN(CC(F)(F)F)CC1 [Example 106, 3-Amino-4-(7-fluoro-1H-indazol-4-yl)-7-methyl-6-[1-(2,2,2-trifluoroethyl)-4-piperidyl]-1H-quinolin-2-one] | 0.0145
2 | Cc1c(C2CC2)nc2c(-c3ccc(F)c4[nH]ncc34)c(N)c(=O)[nH]c2c1Cl [Example 109, 3-Amino-8-chloro-6-cyclopropyl-4-(7-fluoro-1H-indazol-4-yl)-7-methyl-1H-1,5-naphthyridin-2-one] | < 0.01
3 | C#Cc1nc2c(-c3ccc(F)c4[nH]ncc34)c(N)c(=O)[nH]c2c(Cl)c1C [Example 111, 3-Amino-8-chloro-6-ethynyl-4-(7-fluoro-1H-indazol-4-yl)-7-methyl-1H-1,5-naphthyridin-2-one] | < 0.01
4 | CC(=O)c1nc2c(-c3ccc(F)c4[nH]ncc34)c(N)c(=O)[nH]c2c(Cl)c1C [Example 112, 6-Acetyl-3-amino-8-chloro-4-(7-fluoro-1H-indazol-4-yl)-7-methyl-1H-1,5-naphthyridin-2-one] | < 0.01
5 | C=Cc1nc2c(-c3ccc(F)c4[nH]ncc34)c(N)c(=O)[nH]c2c(Cl)c1C [Example 113, 3-Amino-8-chloro-4-(7-fluoro-1H-indazol-4-yl)-7-methyl-6-vinyl-1H-1,5-naphthyridin-2-one] | < 0.01
6 | Cc1c(C2CC2)nc2c(-c3ccc(F)c4[nH]ncc34)c(N)c(=O)[nH]c2c1C1CC1 [Example 114, 3-Amino-6,8-dicyclopropyl-4-(7-fluoro-1H-indazol-4-yl)-7-methyl-1H-1,5-naphthyridin-2-one] | 0.0136
7 | Cc1c(OC2CCC2)cnc2c(-c3ccc(F)c4[nH]ncc34)c(N)c(=O)[nH]c12 [Example 139, 3-Amino-7-(cyclobutoxy)-4-(7-fluoro-1H-indazol-4-yl)-8-methyl-1H-1,5-naphthyridin-2-one] | 0.0132
8 | Cc1cc(C#CC(C)(C)O)nc2c(-c3ccc(F)c4[nH]ncc34)c(N)c(=O)[nH]c12 [Example 148, 3-Amino-4-(7-fluoro-1H-indazol-4-yl)-6-(3-hydroxy-3-methyl-but-1-ynyl)-8-methyl-1H-1,5-naphthyridin-2-one] | < 0.01
9 | COC(C)(C)C#Cc1cc(C)c2[nH]c(=O)c(N)c(-c3ccc(F)c4[nH]ncc34)c2n1 [Example 149, 3-Amino-4-(7-fluoro-1H-indazol-4-yl)-6-(3-methoxy-3-methyl-but-1-ynyl)-8-methyl-1H-1,5-naphthyridin-2-one] | < 0.01
10 | Cc1cc(C#CC2COC2)nc2c(-c3ccc(F)c4[nH]ncc34)c(N)c(=O)[nH]c12 [Example 150, 3-Amino-4-(7-fluoro-1H-indazol-4-yl)-8-methyl-6-[2-(oxetan-3-yl)ethynyl]-1H-1,5-naphthyridin-2-one] | 0.0152
11 | Cc1cc2[nH]c(=O)c(N)c(-c3ccc(F)c4[nH]ncc34)c2nc1-c1cccs1 [Example 151, 3-Amino-4-(7-fluoro-1H-indazol-4-yl)-7-methyl-6-(2-thienyl)-1H-1,5-naphthyridin-2-one] | 0.013
12 | Cc1cc2[nH]c(=O)c(N)c(-c3ccc(F)c4[nH]ncc34)c2nc1-c1cscn1 [Example 152, 3-Amino-4-(7-fluoro-1H-indazol-4-yl)-7-methyl-6-thiazol-4-yl-1H-1,5-naphthyridin-2-one] | 0.0138
13 | Cc1cc2[nH]c(=O)c(N)c(-c3ccc(F)c4[nH]ncc34)c2nc1-c1ccccn1 [Example 155, 3-Amino-4-(7-fluoro-1H-indazol-4-yl)-7-methyl-6-(2-pyridyl)-1H-1,5-naphthyridin-2-one] | 0.0147
14 | CCc1nc2c(-c3ccc(F)c4[nH]ncc34)c(N)c(=O)[nH]c2cc1C [Example 157, 3-Amino-6-ethyl-4-(7-fluoro-1H-indazol-4-yl)-7-methyl-1H-1,5-naphthyridin-2-one] | 0.0156
15 | Cc1cc2[nH]c(=O)c(N)c(-c3ccc(Cl)c4[nH]ncc34)c2nc1C [Example 159, 3-Amino-4-(7-chloro-1H-indazol-4-yl)-6,7-dimethyl-1H-1,5-naphthyridin-2-one] | < 0.01

Other lines, results leading:

Row | IC50 [µM] | SMILES
16 | 0.0151 | Cc1c(Br)nc2c(-c3ccc(F)c4[nH]ncc34)c(N)c(=O)[nH]c2c1Cl [Example 108, 3-Amino-6-bromo-8-chloro-4-(7-fluoro-1H-indazol-4-yl)-7-methyl-1H-1,5-naphthyridin-2-one]
17 | < 0.01 | Cc1c(Br)cnc2c(-c3ccc(F)c4[nH]ncc34)c(N)c(=O)[nH]c12 [Example 115, 3-Amino-7-bromo-4-(7-fluoro-1H-indazol-4-yl)-8-methyl-1H-1,5-naphthyridin-2-one]
18 | < 0.01 | Cc1c(I)cnc2c(-c3ccc(F)c4[nH]ncc34)c(N)c(=O)[nH]c12 [Example 116, 3-Amino-4-(7-fluoro-1H-indazol-4-yl)-7-iodo-8-methyl-1H-1,5-naphthyridin-2-one]
19 | 0.013 | Cc1c(C2CCC2)cnc2c(-c3ccc(F)c4[nH]ncc34)c(N)c(=O)[nH]c12 [Example 119, 3-Amino-7-cyclobutyl-4-(7-fluoro-1H-indazol-4-yl)-8-methyl-1H-1,5-naphthyridin-2-one]
20 | 0.0107 | Cc1c(-c2nccs2)cnc2c(-c3ccc(F)c4[nH]ncc34)c(N)c(=O)[nH]c12 [Example 121, 3-Amino-4-(7-fluoro-1H-indazol-4-yl)-8-methyl-7-thiazol-2-yl-1H-1,5-naphthyridin-2-one]
21 | < 0.01 | C=Cc1cnc2c(-c3ccc(F)c4[nH]ncc34)c(N)c(=O)[nH]c2c1C [Example 123, 3-Amino-4-(7-fluoro-1H-indazol-4-yl)-8-methyl-7-vinyl-1H-1,5-naphthyridin-2-one]
22 | < 0.01 | C=C(C)c1cnc2c(-c3ccc(F)c4[nH]ncc34)c(N)c(=O)[nH]c2c1C [Example 125, 3-Amino-4-(7-fluoro-1H-indazol-4-yl)-7-isopropenyl-8-methyl-1H-1,5-naphthyridin-2-one]
23 | < 0.01 | Cc1c(C2CCCC2)cnc2c(-c3ccc(F)c4[nH]ncc34)c(N)c(=O)[nH]c12 [Example 126, 3-Amino-7-cyclopentyl-4-(7-fluoro-1H-indazol-4-yl)-8-methyl-1H-1,5-naphthyridin-2-one]
24 | 0.0128 | Cc1c(C2(C)CC2)cnc2c(-c3ccc(F)c4[nH]ncc34)c(N)c(=O)[nH]c12 [Example 129, 3-Amino-4-(7-fluoro-1H-indazol-4-yl)-8-methyl-7-(1-methylcyclopropyl)-1H-1,5-naphthyridin-2-one]
25 | 0.0123 | Cc1c(C2CC2(C)C)cnc2c(-c3ccc(F)c4[nH]ncc34)c(N)c(=O)[nH]c12 (centres unmarked) [Example 130, 3-Amino-7-(2,2-dimethylcyclopropyl)-4-(7-fluoro-1H-indazol-4-yl)-8-methyl-1H-1,5-naphthyridin-2-one]
26 | 0.0175 | Cc1c(CC2CC2)cnc2c(-c3ccc(F)c4[nH]ncc34)c(N)c(=O)[nH]c12 [Example 131, 3-Amino-7-(cyclopropylmethyl)-4-(7-fluoro-1H-indazol-4-yl)-8-methyl-1H-1,5-naphthyridin-2-one]
27 | < 0.01 | Cc1c(C2CC2F)cnc2c(-c3ccc(F)c4[nH]ncc34)c(N)c(=O)[nH]c12 (centres unmarked) [Example 132, 3-Amino-7-(2-fluorocyclopropyl)-4-(7-fluoro-1H-indazol-4-yl)-8-methyl-1H-1,5-naphthyridin-2-one]
28 | 0.014 | Cc1c(F)cnc2c(-c3ccc(F)c4[nH]ncc34)c(N)c(=O)[nH]c12 [Example 135, 3-Amino-7-fluoro-4-(7-fluoro-1H-indazol-4-yl)-8-methyl-1H-1,5-naphthyridin-2-one]
29 | 0.0141 | Cc1c(OCC(F)(F)F)cnc2c(-c3ccc(F)c4[nH]ncc34)c(N)c(=O)[nH]c12 [Example 137, 3-Amino-4-(7-fluoro-1H-indazol-4-yl)-8-methyl-7-(2,2,2-trifluoroethoxy)-1H-1,5-naphthyridin-2-one]
30 | 0.0142 | Cc1c(OC(C)C)cnc2c(-c3ccc(F)c4[nH]ncc34)c(N)c(=O)[nH]c12 [Example 138, 3-Amino-4-(7-fluoro-1H-indazol-4-yl)-7-isopropoxy-8-methyl-1H-1,5-naphthyridin-2-one]
31 | 0.0118 | CCOc1cnc2c(-c3ccc(F)c4[nH]ncc34)c(N)c(=O)[nH]c2c1C [Example 140, 3-Amino-7-ethoxy-4-(7-fluoro-1H-indazol-4-yl)-8-methyl-1H-1,5-naphthyridin-2-one]
32 | 0.0104 | CSc1cnc2c(-c3ccc(F)c4[nH]ncc34)c(N)c(=O)[nH]c2c1C [Example 141, 3-Amino-4-(7-fluoro-1H-indazol-4-yl)-8-methyl-7-methylsulfanyl-1H-1,5-naphthyridin-2-one]
33 | 0.0185 | Cc1cnc2c(-c3ccc(F)c4[nH]ncc34)c(N)c(=O)[nH]c2c1C(F)F [Example 145, 3-Amino-8-(difluoromethyl)-4-(7-fluoro-1H-indazol-4-yl)-7-methyl-1H-1,5-naphthyridin-2-one]
34 | 0.0118 | Cc1cc2[nH]c(=O)c(N)c(-c3ccc(F)c4[nH]ncc34)c2nc1-c1nccs1 [Example 153, 3-Amino-4-(7-fluoro-1H-indazol-4-yl)-7-methyl-6-thiazol-2-yl-1H-1,5-naphthyridin-2-one]
35 | < 0.01 | Cc1cc2[nH]c(=O)c(N)c(-c3ccc(F)c4[nH]ncc34)c2nc1-c1ncco1 [Example 154, 3-Amino-4-(7-fluoro-1H-indazol-4-yl)-7-methyl-6-oxazol-2-yl-1H-1,5-naphthyridin-2-one]
